Literature values as cited in patent US20220235393A1, “SURROGATE VIRUS ASSAYS AND METHODS” (priority 2019, published 2022).

Test system: ASFV

Compound: O=C(O)CC(O)(CC(=O)O)C(=O)O [citric acid]
- inactivation of virus applied to wood surfaces: completely inactivated
